One molecule from patent US7045280B2, “Assay method” (AstraZeneca AB, priority 1999, dated 2006) can be followed below.

Holding throughout (type): biochemical
For assay [1], the target named is T1, uPA (Homo sapiens, UniProt P00749).
T1 construct: uPA (high molecular weight uPA Calbiochem, Cat. 627081); purchased Calbiochem 627081
In words: uPA chromogenic substrate assay (S2444). Here is the method:
(§1) Briefly, uPA (high molecular weight uPA Calbiochem, Cat. 627081), tpA (Quadratech, Cat. 821157) or plasmin (Quadratech, Cat. 810655) were diluted-in buffer comprising 0.5M tris HCl, 0.1% tween 20 pH 8.3. Urokinase activity was measured in a final volume of 100 μl containing 0.4 mM S2444 in assay buffer by following the increase in absorbance at 405 nm. The activity of tPA was measured in a final volume of 100 μl, containing 230 nM Spectrozyrne tPA substrate (American Diagnostica, Cat. 444L) and 40 μg per ml tPA stimulator (fibrin, Quadratech, Cat. 821116) and following the increase in absorbance at 405 nm. Plasmin activity was measured in a final volume of 100 μl containing 0.66 mM S2251, and following the increase in absorbance at 405 nm.

Assay [2] deals with T2, Plasmin (Homo sapiens, UniProt P00747).
T2 construct: purchased Quadratech 810655
The assay is described as follows: Plasmin chromogenic substrate assay (S2251). Here is the method: as §1

In assay [3] the target is T3, tPA (Homo sapiens, UniProt P00750).
T3 construct: purchased Quadratech 821157
In words: tPA chromogenic substrate assay (Spectrozyme tPA, fibrin stimulator). The procedure:
as §1

T2 sequence (P00747 97-580 partner limits assumed): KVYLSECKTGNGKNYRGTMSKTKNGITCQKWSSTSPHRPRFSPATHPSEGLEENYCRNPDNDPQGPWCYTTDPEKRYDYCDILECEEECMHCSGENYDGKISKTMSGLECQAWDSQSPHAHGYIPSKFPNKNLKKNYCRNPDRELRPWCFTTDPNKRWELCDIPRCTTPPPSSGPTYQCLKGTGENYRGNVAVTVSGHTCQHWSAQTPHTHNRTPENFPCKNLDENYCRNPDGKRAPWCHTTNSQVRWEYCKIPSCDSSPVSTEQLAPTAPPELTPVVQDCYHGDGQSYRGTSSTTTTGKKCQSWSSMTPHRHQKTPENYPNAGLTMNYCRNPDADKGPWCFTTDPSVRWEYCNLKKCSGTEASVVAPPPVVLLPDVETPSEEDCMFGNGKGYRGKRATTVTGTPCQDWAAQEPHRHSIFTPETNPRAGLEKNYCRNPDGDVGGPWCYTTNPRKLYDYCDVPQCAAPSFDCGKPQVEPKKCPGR
T2 sequence (P00747 581-810 limits assumed): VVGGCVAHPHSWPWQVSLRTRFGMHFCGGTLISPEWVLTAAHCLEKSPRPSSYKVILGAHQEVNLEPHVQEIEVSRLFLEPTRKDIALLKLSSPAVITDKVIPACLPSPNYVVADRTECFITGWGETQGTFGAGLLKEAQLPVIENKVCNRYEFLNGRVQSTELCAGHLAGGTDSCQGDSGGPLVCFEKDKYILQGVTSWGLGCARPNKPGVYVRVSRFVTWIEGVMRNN
T3 sequence (P00750 36-562): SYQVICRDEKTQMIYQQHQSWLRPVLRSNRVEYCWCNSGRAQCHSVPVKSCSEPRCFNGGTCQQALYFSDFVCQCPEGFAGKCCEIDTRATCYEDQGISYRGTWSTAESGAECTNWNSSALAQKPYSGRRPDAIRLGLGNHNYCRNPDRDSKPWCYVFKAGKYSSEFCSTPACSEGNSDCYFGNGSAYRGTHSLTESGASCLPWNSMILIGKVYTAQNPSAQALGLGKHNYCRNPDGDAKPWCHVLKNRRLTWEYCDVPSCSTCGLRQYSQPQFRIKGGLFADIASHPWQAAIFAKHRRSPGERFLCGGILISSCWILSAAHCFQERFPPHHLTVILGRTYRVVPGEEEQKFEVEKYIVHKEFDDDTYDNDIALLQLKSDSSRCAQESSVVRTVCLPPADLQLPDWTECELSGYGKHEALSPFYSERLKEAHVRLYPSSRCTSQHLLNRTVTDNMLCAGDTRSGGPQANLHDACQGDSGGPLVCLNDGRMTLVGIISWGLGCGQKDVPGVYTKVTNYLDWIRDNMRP

On to `CC(C)[C@H](NC(=O)c1ccc(C(=O)NS(=O)(=O)c2ccc(Br)cc2)cc1)C(=O)N1CCC[C@H]1C(=O)N[C@H](C(=O)C(F)(F)F)C(C)C` [elastase inhibitor, 3S-[4-[(4-bromophenyl)sulfonylaminocarbonyl]phenylcarbonyl]-L-valyl-N-[3-(1,1,1-trifluoro-4-methyl-2-oxopentyl)]-L-prolinamide], for which the “% inhibition” value was determined as 2% in assay [1] (100 μM elastase inhibitor, uPA (5 nM), 0.4 mM S2444, absorbance at 405 nm); 2% in assay [2] (100 μM elastase inhibitor, Plasmin (2.5 μg ml-1), 0.66 mM S2251, absorbance at 405 nm); 9% in assay [3] (100 μM elastase inhibitor, tPA (30 nM), Spectrozyme tPA substrate, 40 μg per ml tPA stimulator, absorbance at 405 nm). Also, in assay [1] (chromogenic substrate assay), the “inhibition of uPA activity (in words)” value is given as “did not significantly inhibit”. The “inhibition of plasmin activity (in words)” value in assay [2] (chromogenic substrate assay) is “did not significantly inhibit”. Besides, the “inhibition of tPA activity (in words)” value in assay [3] (chromogenic substrate assay) is reported as “did not significantly inhibit”.
